# How the values were obtained:
# [1] = Brain penetration in rats; format: in vivo, Sprague-Dawley rats; conditions: rat, single i.v. 10 mg/kg
# Description: ii. Brain penetration in rats: Early and accurate prediction of drug penetration of the blood brain barrier is vital for the development of drugs targeting the central nervous system. Accordingly, ability of the compounds of the invention to penetrate the blood brain barrier was tested according to the methods well established in the art (Giorgetti et al., (2010) JPET 333:748-757, 2010). Briefly, Sprague-Dawley rats (n=3 per time point studied) were administered a single intravenous dose of the test compounds 2 or 97 formulated in 40% PEG and 20% PG at 10 mg/kg. Three rats were used for each of the following time points post-dosing: 0.5 hr, 1.5 hr and 3.0 hrs. First, blood was collected during deep anesthesia in heparinized tubes, and then animals were sacrificed and their brains were harvested. The brains were then pulverized in liquid nitrogen and homogenized in fixed volumes of ice cold homogenization buffer (10% Acetonitrile, 0.1% formic acid in water). Plasma was separated from blood using standard procedures. Plasma and brain concentrations of test compounds 2 and 97 were determined by LC/MS/MS using an API 4000 or AP15500 Qtrap mass spectrometer. Brain/Plasma ratio of test compounds 2 and 97 were determined after normalizing brain weight and buffer volume.
# [2] = test system: CT-26 tumor cells; experiment: Combination therapy with Doxorubicin in CT-26 syngeneic tumor model; format: in vivo, Balb/c mice; conditions: vs DOXO or compound alone
# Description: Test compounds were evaluated in mice syngeneic tumor models described above for usefulness in combination therapy with a chemotheraputic agent, Doxorubicin (DOXO, Sterling Biotech, India).
# Tumor bearing Balb/c mice as described earlier were randomized to receive vehicle alone, test compound alone, DOXO alone, or test compound in combination with DOXO. Animals in DOXO treated arm were injected intraperitoneally on day 1 with DOXO formulated in normal saline (7.5 mg/kg). Five days later, the animals were dosed twice a day orally with either a test compound or vehicle alone during the test period till the end of the experiment. A second smaller dose of DOXO at 3 or 4 mg/Kg was administered to the DOXO-treated animals about 3 weeks after the first DOXO dose. Tumor volume was measured in animals as described above.
# Non-limiting examples follow. Test compound 97 was formulated in 40% PEG, 20% PG, 10% DACM in normal saline. From day 5 after the first DOXO dose was administered till the end of the study period on day 35, the animals were dosed twice a day orally with compound 97 (75 mg/kg). Three weeks later, the DOXO-treated animals were injected i.p. with a second dose of DOXO (3 mg/kg). Tumor volume was monitored as described above. Tumor tissues and final blood samples were harvested from the mice 4 hours after the final test compound dose. […]
SMILES,blood brain barrier penetration [1],"tumor volume, combination with DOXO ([2]; 75 mg/kg oral BID + DOXO 7.5 then 3 mg/kg i.p.)","tumor volume, combination with DOXO ([2]; 50 mg/kg oral BID + DOXO)"
"Nc1oc2cnccc2c1Nc1ccc(F)c(Cl)c1 [Compound 2, N^3-(3-Chloro-4-fluoro-phenyl)-furo[2,3-c]pyridine-2,3-diamine]",capable of penetrating blood brain barrier,,
"Nc1oc2c(-c3ccncc3)nccc2c1Nc1ccc(F)c(Cl)c1 [Compound 97, N^3-(3-Chloro-4-fluorophenyl)-7-(pyridin-4-yl)furo[2,3-c]pyridine-2,3-diamine]",capable of penetrating blood brain barrier,greater reduction in tumor volume,
"Nc1oc2c(-c3ccncc3)nccc2c1Nc1ccc(F)c(F)c1 [Compound 184, N^3-(3,4-difluorophenyl)-7-(pyridin-4-yl)furo[2,3-c]pyridine-2,3-diamine]",,,greater reduction in tumor volume
